Measured values reported in ChEMBL document CHEMBL6182904, “Discovery of a novel molecular glue degrader targeting GSPT1/2 with a non-IMiD-based CRBN binder” (Eur J Med Chem, 2025).
The source made the active and inactive calls. No cut-off for these calls is given here.

Assays:
[1] = molecular target: Protein cereblon (Homo sapiens) (UniProt Q96SW2); assay: Binding affinity to CRBN (unknown origin) at 10 uM relative to control
[2] = molecular target: T1, Protein cereblon/Eukaryotic peptide chain release factor GTP-binding subunit ERF3A (Homo sapiens, UniProt Q96SW2+P15170); assay: Molecular glue activity at human full length wild type CRBN/Hibit tagged GSPT1 in human Jurkat cells assessed as induction of GSPT1 degradation; assay type: cell-based
Target sequence in this assay (Q96SW2 whole entry): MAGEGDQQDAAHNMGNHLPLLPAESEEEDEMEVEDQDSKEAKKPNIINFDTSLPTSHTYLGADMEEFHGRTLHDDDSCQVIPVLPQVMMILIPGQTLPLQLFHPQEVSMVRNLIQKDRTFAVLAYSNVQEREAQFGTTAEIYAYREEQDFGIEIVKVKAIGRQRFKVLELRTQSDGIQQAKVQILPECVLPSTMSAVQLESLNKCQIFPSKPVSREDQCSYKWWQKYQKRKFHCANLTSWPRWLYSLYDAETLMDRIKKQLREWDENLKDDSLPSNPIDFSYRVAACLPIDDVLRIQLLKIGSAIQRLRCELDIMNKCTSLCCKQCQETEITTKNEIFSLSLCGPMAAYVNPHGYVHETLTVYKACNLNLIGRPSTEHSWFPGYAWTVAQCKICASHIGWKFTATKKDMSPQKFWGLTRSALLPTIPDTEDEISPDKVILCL
Target sequence in this assay (P15170 whole entry): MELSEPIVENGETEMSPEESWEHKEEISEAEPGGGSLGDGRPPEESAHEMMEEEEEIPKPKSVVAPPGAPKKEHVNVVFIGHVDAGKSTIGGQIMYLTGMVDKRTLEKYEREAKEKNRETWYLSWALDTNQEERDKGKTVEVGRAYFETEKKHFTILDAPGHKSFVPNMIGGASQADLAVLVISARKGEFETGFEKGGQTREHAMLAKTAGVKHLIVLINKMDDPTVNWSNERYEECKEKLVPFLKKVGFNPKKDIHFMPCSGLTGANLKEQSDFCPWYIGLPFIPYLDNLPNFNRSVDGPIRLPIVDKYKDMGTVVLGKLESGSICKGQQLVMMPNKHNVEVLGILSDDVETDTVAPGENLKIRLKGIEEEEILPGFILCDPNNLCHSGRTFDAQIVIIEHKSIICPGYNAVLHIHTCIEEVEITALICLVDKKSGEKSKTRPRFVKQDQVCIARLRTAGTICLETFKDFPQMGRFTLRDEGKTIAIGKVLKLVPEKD

[3] = molecular target: Protein cereblon/Eukaryotic peptide chain release factor GTP-binding subunit ERF3A (Homo sapiens, UniProt P15170+Q96SW2); assay: Molecular glue activity at LgBiT tagged CRBN/SmBiT tagged GSPT1 (unknown origin) transfected with HEK293T cells assessed as ternary complex formation incubated for 1 hr by Nano-Glo luminescence analysis; assay type: cell-based
[4] = Cytotoxicity against HEK293T cells assessed as cell growth inhibition measured after 72 hrs by CellTiter-Glo assay; assay type: toxicity, cell-based, HEK-293T; conditions: human
[5] = Cytotoxicity against HEK293T cells assessed as cell growth inhibition measured after 72 hrs in presence of MLN4924 by CellTiter-Glo assay; assay type: toxicity, cell-based, HEK-293T; conditions: human
Jurkat [6] = assay: Cytotoxicity against human Jurkat cells assessed as cell growth inhibition measured after 72 hrs by CellTiter-Glo assay; assay type: functional
[7] = Cytotoxicity against human Jurkat cells assessed as cell growth inhibition measured after 72 hrs in presence of MLN4924 by CellTiter-Glo assay; assay type: toxicity, cell-based
MCF7 = assay: Selectivity ratio of GI50 for cytotoxicity against human MCF7 cells assessed as cell growth inhibition measured after 72 hrs in presence of MLN4924 to GI50 for cytotoxicity against human MCF7 cells assessed as cell growth inhibition measured after 72 hrs; assay type: functional
[8] = Selectivity ratio of GI50 for cytotoxicity against human HCT-116 cells assessed as cell growth inhibition measured after 72 hrs in presence of MLN4924 to GI50 for cytotoxicity against human HCT-116 cells assessed as cell growth inhibition measured after 72 hrs; assay type: functional
[9] = Selectivity ratio of GI50 for cytotoxicity against human MIA PaCa-2 cells assessed as cell growth inhibition measured after 72 hrs in presence of MLN4924 to GI50 for cytotoxicity against human MIA PaCa-2 cells assessed as cell growth inhibition measured after 72 hrs; assay type: functional
[10] = molecular target: T1, Protein cereblon/Eukaryotic peptide chain release factor GTP-binding subunit ERF3A; assay: Molecular glue activity at full length human wild type CRBN/HiBit tagged GSPT1 in HEK293T cells assessed as induction of GSPT1 degradation at 1 uM incubated for 12 hrs by Western blot analysis; assay type: cell-based
Target sequence in this assay (P15170 whole entry, looked up): as the sequence (P15170 whole entry) above
Target sequence in this assay (Q96SW2 whole entry, looked up): as the sequence (Q96SW2 whole entry) above

[11] = molecular target: T1, Protein cereblon/Eukaryotic peptide chain release factor GTP-binding subunit ERF3A; assay: Molecular glue activity at full length human wild type CRBN/HiBit tagged GSPT1 in HEK293T cells assessed as induction of GSPT1 degradation at 0.1 to 10 uM incubated for 6 hrs by Western blot analysis; assay type: cell-based; conditions: dose 0.1-10 µM
Target sequence in this assay (P15170 whole entry, looked up): as the sequence (P15170 whole entry) above
Target sequence in this assay (Q96SW2 whole entry, looked up): as the sequence (Q96SW2 whole entry) above

[12] = molecular target: T1, Protein cereblon/Eukaryotic peptide chain release factor GTP-binding subunit ERF3A; assay: Molecular glue activity at full length human wild type CRBN/HiBit tagged GSPT1 in human KG-1 cells assessed as induction of GSPT1 degradation at 0.1 to 10 uM incubated for 6 hrs by Western blot analysis; assay type: cell-based; conditions: dose 0.1-10 µM
Target sequence in this assay (P15170 whole entry, looked up): as the sequence (P15170 whole entry) above
Target sequence in this assay (Q96SW2 whole entry, looked up): as the sequence (Q96SW2 whole entry) above

[13] = molecular target: T1, Protein cereblon/Eukaryotic peptide chain release factor GTP-binding subunit ERF3A; assay: Molecular glue activity at full length wild type human CRBN/HiBit tagged GSPT1 in human Jurkat cells assessed as induction of GSPT1 degradation at 3 uM incubated for 6 hrs by Western blot analysis; assay type: cell-based
Target sequence in this assay (P15170 whole entry, looked up): as the sequence (P15170 whole entry) above
Target sequence in this assay (Q96SW2 whole entry, looked up): as the sequence (Q96SW2 whole entry) above

[14] = molecular target: T2, Protein cereblon/Eukaryotic peptide chain release factor GTP-binding subunit ERF3B (Homo sapiens, UniProt Q96SW2+Q8IYD1); assay: Molecular glue activity at full length human wild type CRBN/GSPT2 in human Jurkat cells assessed as induction of GSPT2 degradation at 3 uM incubated for 6 hrs by Western blot analysis; assay type: cell-based
Target sequence in this assay (Q8IYD1 whole entry, looked up): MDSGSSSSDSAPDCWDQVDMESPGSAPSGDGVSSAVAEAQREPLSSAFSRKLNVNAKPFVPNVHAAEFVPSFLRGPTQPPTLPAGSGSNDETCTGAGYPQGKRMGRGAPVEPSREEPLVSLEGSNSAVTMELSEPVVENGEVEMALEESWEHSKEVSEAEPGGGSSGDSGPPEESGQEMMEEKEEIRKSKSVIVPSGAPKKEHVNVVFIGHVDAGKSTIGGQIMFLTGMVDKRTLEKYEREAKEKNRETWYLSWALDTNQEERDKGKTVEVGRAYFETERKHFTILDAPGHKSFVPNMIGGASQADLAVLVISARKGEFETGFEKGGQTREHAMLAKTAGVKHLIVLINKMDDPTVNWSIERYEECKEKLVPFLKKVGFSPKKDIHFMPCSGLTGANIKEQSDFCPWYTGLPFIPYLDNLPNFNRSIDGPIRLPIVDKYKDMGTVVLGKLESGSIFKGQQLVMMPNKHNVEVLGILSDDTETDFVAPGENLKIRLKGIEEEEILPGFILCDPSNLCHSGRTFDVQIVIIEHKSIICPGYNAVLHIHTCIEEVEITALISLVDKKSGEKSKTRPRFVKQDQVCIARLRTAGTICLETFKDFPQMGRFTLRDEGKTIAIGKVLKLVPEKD
Target sequence in this assay (Q96SW2 whole entry, looked up): as the sequence (Q96SW2 whole entry) above

[15] = molecular target: T1, Protein cereblon/Eukaryotic peptide chain release factor GTP-binding subunit ERF3A; assay: Molecular glue activity at full length human wild type CRBN/HiBit tagged GSPT1 in human Jurkat cells assessed as induction of GSPT1 degradation incubated for 6 hrs by Western blot analysis; assay type: cell-based
Target sequence in this assay (Q96SW2 whole entry): as above
Target sequence in this assay (P15170 whole entry): as the sequence (P15170 whole entry) above

[16] = molecular target: T2, Protein cereblon/Eukaryotic peptide chain release factor GTP-binding subunit ERF3B; assay: Molecular glue activity at full length human wild type CRBN/GSPT2 in human Jurkat cells assessed as induction of GSPT2 degradation incubated for 6 hrs by Western blot analysis; assay type: cell-based
[17] = molecular target: T1, Protein cereblon/Eukaryotic peptide chain release factor GTP-binding subunit ERF3A; assay: Molecular glue activity at full length wild type human CRBN/HiBit tagged GSPT1 in human Jurkat cells harbouring cullin4 knockdown assessed as induction of GSPT1 degradation at 1 uM incubated for 6 hrs by Western blot analysis; assay type: cell-based
Target sequence in this assay (P15170 whole entry, looked up): as the sequence (P15170 whole entry) above
Target sequence in this assay (Q96SW2 whole entry, looked up): as the sequence (Q96SW2 whole entry) above

Jurkat [18] = assay: Cytotoxicity against human Jurkat cells harbouring cullin4 knockdown assessed as cell growth inhibition measured after 72 hrs by CellTiter-Glo assay; assay type: functional
[19] = molecular target: T1, Protein cereblon/Eukaryotic peptide chain release factor GTP-binding subunit ERF3A; assay: Molecular glue activity at full length human wild type CRBN/HiBit tagged GSPT1 in human Jurkat cells assessed as induction of GSPT1 degradation at 0.1 to 10 uM incubated for 6 hrs in presence of bortezomib by Western blot analysis; assay type: cell-based; conditions: dose 0.1-10 µM
Target sequence in this assay (P15170 whole entry, looked up): as the sequence (P15170 whole entry) above
Target sequence in this assay (Q96SW2 whole entry, looked up): as the sequence (Q96SW2 whole entry) above

[20] = molecular target: T2, Protein cereblon/Eukaryotic peptide chain release factor GTP-binding subunit ERF3B; assay: Molecular glue activity at full length human wild type CRBN/HiBit tagged GSPT2 in human Jurkat cells assessed as induction of GSPT2 degradation at 0.1 to 10 uM incubated for 6 hrs in presence of bortezomib by Western blot analysis; assay type: cell-based; conditions: dose 0.1-10 µM
Target sequence in this assay (Q8IYD1 whole entry, looked up): as the sequence (Q8IYD1 whole entry, looked up) above
Target sequence in this assay (Q96SW2 whole entry, looked up): as the sequence (Q96SW2 whole entry) above

[21] = molecular target: Protein cereblon (Homo sapiens) (UniProt Q96SW2); assay: Binding affinity to CRBN in HEK293T cells harbouring DDB1/Nanoluc assessed as decrease in BRET ratio incubated for 2 hrs NanoBRET engagement assay; assay type: cell-based; conditions: dose 1-30 µM
[22] = molecular target: T1, Protein cereblon/Eukaryotic peptide chain release factor GTP-binding subunit ERF3A; assay: Molecular glue activity at full length human wild type CRBN/HiBit tagged GSPT1 in HEK293T cells assessed as induction of GSPT1 degradation incubated for 6 hrs by Nano-Glo luminescence assay; assay type: cell-based
Target sequence in this assay (Q96SW2 whole entry): as above
Target sequence in this assay (P15170 whole entry): as the sequence (P15170 whole entry) above

[23] = molecular target: T1, Protein cereblon/Eukaryotic peptide chain release factor GTP-binding subunit ERF3A; assay: Molecular glue activity at full length human wild type CRBN/HiBit tagged GSPT1 in HEK293T cells assessed as induction of GSPT1 degradation incubated for 6 hrs in presence of pomalidomide by Nano-Glo luminescence assay; assay type: cell-based
Target sequence in this assay (Q96SW2 whole entry): as the sequence (Q96SW2 whole entry) above
Target sequence in this assay (P15170 whole entry): as the sequence (P15170 whole entry) above

[24] = molecular target: T1, Protein cereblon/Eukaryotic peptide chain release factor GTP-binding subunit ERF3A; assay: Molecular glue activity at full length human wild type CRBN/HiBit tagged GSPT1 in HEK293T cells assessed as induction of GSPT1 degradation at 10 uM incubated for 6 hrs by Nano-Glo luminescence assay relative to control; assay type: cell-based
[25] = molecular target: T1, Protein cereblon/Eukaryotic peptide chain release factor GTP-binding subunit ERF3A; assay: Molecular glue activity at full length human wild type CRBN/HiBit tagged GSPT1 in HEK293T cells assessed as induction of GSPT1 degradation at 10 uM incubated for 6 hrs in presence of pomalidomide by Nano-Glo luminescence assay relative to control; assay type: cell-based
[26] = molecular target: Protein cereblon/Eukaryotic peptide chain release factor GTP-binding subunit ERF3A (Mus musculus) (UniProt Q8C7D2+Q8R050); assay: Molecular glue activity at Wild type CRBN/GSPT1 in mouse MEF cells harbouring CRBN knockout assessed as induction of GSPT1 degradation at 0.1 to 10 uM incubated for 24 hrs by Western blot analysis; assay type: cell-based; conditions: dose 0.1-10 µM
MEF = assay: Molecular glue activity at CRBN W386A mutant/GSPT1 in mouse MEF cells harbouring CRBN knockout assessed as induction of GSPT1 degradation at 0.1 to 10 uM incubated for 24 hrs by Western blot analysis; assay type: cell-based; conditions: dose 0.1-10 µM
[27] = molecular target: T1, Protein cereblon/Eukaryotic peptide chain release factor GTP-binding subunit ERF3A; assay: Molecular glue activity at full length wild type CRBN/HiBit tagged GSPT1 in human Jurkat cells harbouring wildtype CRBN assessed as induction of GSPT1 degradation at 0.1 to 10 uM incubated for 6 hrs by Western blot analysis; assay type: cell-based; conditions: dose 0.1-10 µM
[28] = molecular target: T1, Protein cereblon/Eukaryotic peptide chain release factor GTP-binding subunit ERF3A; assay: Molecular glue activity at full length wild type CRBN/HiBit tagged GSPT1 in human Jurkat cells harbouring CRBN knockout assessed as induction of GSPT1 degradation at 0.1 to 10 uM incubated for 6 hrs by Western blot analysis; assay type: cell-based; conditions: dose 0.1-10 µM
[29] = molecular target: T2, Protein cereblon/Eukaryotic peptide chain release factor GTP-binding subunit ERF3B; assay: Molecular glue activity at full length wild type CRBN/HiBit tagged GSPT2 in human Jurkat cells harbouring wildtype CRBN assessed as induction of GSPT2 degradation at 0.1 to 10 uM incubated for 6 hrs by Western blot analysis; assay type: cell-based; conditions: dose 0.1-10 µM
Target sequence in this assay (Q8IYD1 whole entry, looked up): as the sequence (Q8IYD1 whole entry, looked up) above
Target sequence in this assay (Q96SW2 whole entry, looked up): as the sequence (Q96SW2 whole entry) above

[30] = molecular target: T2, Protein cereblon/Eukaryotic peptide chain release factor GTP-binding subunit ERF3B; assay: Molecular glue activity at full length wild type CRBN/HiBit tagged GSPT2 in human Jurkat cells harbouring CRBN knockout assessed as induction of GSPT2 degradation at 0.1 to 10 uM incubated for 6 hrs by Western blot analysis; assay type: cell-based; conditions: dose 0.1-10 µM
Target sequence in this assay (Q8IYD1 whole entry, looked up): as the sequence (Q8IYD1 whole entry, looked up) above
Target sequence in this assay (Q96SW2 whole entry, looked up): as the sequence (Q96SW2 whole entry) above

[31] = molecular target: T1, Protein cereblon/Eukaryotic peptide chain release factor GTP-binding subunit ERF3A; assay: Molecular glue activity at human full length wildtype CRBN/HiBiT tagged GSPT1 in human MIA PaCa-2 cells transfected with CRBN-TurboID-V5 assessed as ternary complex formation at 1 uM preincubated for 4 hrs followed by bortezomib addition and measured after 2 hrs by TurboID analysis; assay type: cell-based; conditions: time 6.0 hrs
[32] = molecular target: T2, Protein cereblon/Eukaryotic peptide chain release factor GTP-binding subunit ERF3B; assay: Molecular glue activity at human full length wildtype CRBN/HiBiT tagged GSPT2 in human MIA PaCa-2 cells transfected with CRBN-TurboID-V5 assessed as ternary complex formation at 1 uM preincubated for 4 hrs followed by bortezomib addition and measured after 2 hrs by TurboID analysis; assay type: cell-based; conditions: time 6.0 hrs
Target sequence in this assay (Q8IYD1 whole entry, looked up): as the sequence (Q8IYD1 whole entry, looked up) above
Target sequence in this assay (Q96SW2 whole entry, looked up): as the sequence (Q96SW2 whole entry) above

Chain of Protein cereblon (Homo sapiens) (Q96SW2 whole entry): as above

## COC(=O)c1nc(NC(=O)Cn2cnc(C)c(C)c2=O)sc1CCc1cccc(Cl)c1
[1]
  Activity: inactive
[2]
  DC50: > 10 µM

## CNC(=O)c1nc(NC(=O)Cn2cnc(C)c(C)c2=O)sc1CCc1ccccc1
[1]
  Activity: -9%
[2]
  DC50: > 10 µM

## COC(=O)c1nc(NC(=O)Cn2cnccc2=O)sc1CCc1ccccc1
[1]
  Activity: 13.8%
[2]
  DC50: 4 µM

## COC(=O)c1nc(NC(=O)Cn2cnc(C)cc2=O)sc1CCc1ccccc1
[1]
  Activity: inactive
[2]
  DC50: > 10 µM

## Cc1ccc(NC(=O)NCc2ccc3c(c2)CN(C2CCC(=O)NC2=O)C3=O)cc1Cl (stereo unspecified)
[3]
  EC50: 0.1 µM

## COC(=O)c1nc(NC(=O)Cn2cncc(C)c2=O)sc1CCc1ccccc1
[1]
  Activity: inactive
[2]
  DC50: > 10 µM

## COC(=O)c1nc(NC(=O)Cn2cnc(C)c(C)c2=O)sc1CCc1ccc(Cl)cc1
[1]
  Activity: inactive
[2]
  DC50: > 10 µM

## COC(=O)c1nc(NC(=O)Cn2cnc3c(c2=O)CCC3)sc1CCc1ccccc1
[1]
  Activity: -14.4%
[2]
  DC50: > 10 µM

## COC(=O)c1nc(NC(=O)Cn2cnc(C)c(C)c2=O)sc1CCc1ccccc1
[3]
  EC50: 11.4 µM
[4]
  GI50 at 72 h: 0.8 µM
[5]
  GI50 at 72 h: 18.4 µM
Jurkat [6]
  GI50: 0.5 µM
[7]
  GI50 at 72 h: 1.4 µM
MCF7
  RatioGI50: 3
[8]
  RatioGI50: 3
[9]
  RatioGI50: 3
[10]
  Activity: Active
[11]
  Activity: Active
[12]
  Activity: Active
[13]
  Activity: Active
[14]
  Activity: Active
[15]
  DC50: 0.127 µM
[16]
  DC50: 0.0422 µM
[17]
  Activity: inactive
Jurkat [18]
  GI50: 3.2 µM
[19]
  Activity: inactive
[20]
  Activity: inactive
[21]
  Activity: Dose-dependent-effect
[22]
  DC50: 0.2 µM
[23]
  DC50: 45 µM
[24]
  Emax: 98.2%
[25]
  Emax: 31.7%
[26]
  Activity: Active
MEF
  Activity: inactive
[1]
  Activity: 47.6%
[2]
  DC50: 1.2 µM
[27]
  Activity: Active
[28]
  Activity: inactive
[29]
  Activity: Active
[30]
  Activity: inactive
[31]
  Activity: inactive
[32]
  Activity: inactive

## COC(=O)c1nc(NC(=O)Cn2cnc(C)c(C)c2=O)sc1Cc1ccccc1
[1]
  Activity: -5.6%
[2]
  DC50: > 10 µM
